Values joined by “and” are separate entries in the source; they are usually repeats but may differ in a detail not shown here. Identical values can stand only once.
Legend:
[1] = Brain to blood ratio in OF1 mouse at 1 mg/kg, iv measured at 5 mins post dose by LC-MS/MS analysis; assay type: ADME, organism-based; details: brain and blood, read-out: BBR
cells = details: Rattus norvegicus, Rat1, 1 h
[2] = Brain to blood ratio in OF1 mouse at 1 mg/kg, iv measured at 1 hr post dose by LC-MS/MS analysis; assay type: ADME, organism-based; details: brain and blood, read-out: BBR
[3] = target: T1, Serine/threonine-protein kinase mTOR (Homo sapiens, UniProt P42345); experiment: Displacement of Alexa Fluor labelled Tracer-314 from human N-terminal GST-tagged mTOR incubated for 1 hr by TR-FRET assay
Tubulin (Homo sapiens) [4] = target: T2, Tubulin (Homo sapiens) (UniProt P68371+Q9H4B7+P0DPH7+P68366+Q13509+Q71U36+P04350+Q3ZCM7+P07437+P68363+Q9BQE3+Q6PEY2+Q13885+Q9BVA1+Q9BUF5); experiment: Binding affinity to tubulin in human A2058 cells assessed as condensed DNA score at 5 uM measured after 24 hrs by DiffQuick staining based microscopic analysis; assay type: cell-based
Tubulin (Homo sapiens) [5] = target: T2, Tubulin (Homo sapiens); experiment: Binding affinity to tubulin in human A2058 cells assessed as condensed DNA score at 5 uM measured after 6 hrs by DiffQuick staining based microscopic analysis; assay type: cell-based
[6] = target: T1, Serine/threonine-protein kinase mTOR; experiment: Binding affinity to human N-terminal GST-tagged mTOR assessed as phosphorylated 4EBP1 by TR-FRET assay
[7] = Oral bioavailability in Sprague-Dawley rat at 3 mg/kg measured for 0.25 to 24 hrs by LC-MS/MS analysis; assay type: ADME, organism-based; details: in vivo, time 0.25-24 hrs
[8] = Stability in human liver microsomes assessed as hepatic extraction preincubated for 3 mins followed by NADPH addition and measured after 60 mins; assay type: ADME, Microsome; details: read-out: ERH
[9] = AUC in Sprague-Dawley rat at 1 mg/kg, iv measured for 0.083 to 48 hrs by LC-MS/MS analysis; assay type: ADME, organism-based; design: time upper 48 hrs, dose 1 mg/kg, time lower 0.083 hrs, route iv; details: in vivo
[10] = Half life in Sprague-Dawley rat at 3 mg/kg, po or iv measured upto 24 hrs by LC-MS/MS analysis; assay type: ADME, organism-based; details: in vivo
[11] = Stability in rat liver microsomes assessed as hepatic extraction preincubated for 3 mins followed by NADPH addition and measured after 60 mins; assay type: ADME, Microsome; details: read-out: ERH
[12] = Volume of distribution at steady state in Sprague-Dawley rat at 3 mg/kg, po or iv measured upto 24 hrs by LC-MS/MS analysis; assay type: ADME, organism-based; details: in vivo
[13] = 1-octanol, logP of the compound at pH 7.4; assay type: physicochemical

Kp at 5 min [1] | IC50 (cells) [nM] | Kp at 1 h [2] | IC50 [3] | other results | Structure (SMILES)
0.11 | 1760 | 0.11 | – | – | C[C@H]1COC(=O)N1c1nc(-c2cnc(N)cc2C(F)(F)F)cc(N2CCOCC2)n1
– | 61 | – | 2000 nM | – | Nc1ncc(-c2cc(N3CCOCC3)nc(N3C(=O)O[C@@H]4COC[C@@H]43)n2)c(C(F)(F)F)n1
– | 5220 | – | 9100 nM and > 9100 nM | Activity (Tubulin (Homo sapiens) [4]): < 2%; Activity (Tubulin (Homo sapiens) [5]): < 2%; IC50 [6]: > 9100 nM | Nc1cc(C(F)(F)F)c(-c2cc(N3CCS(=O)(=O)CC3)nc(N3CCOCC3)n2)cn1
– | 63 | – | 5110 nM | – | C[C@H]1[C@H](CO)OC(=O)N1c1nc(-c2cnc(N)nc2C(F)(F)F)cc(N2CCOCC2)n1
0.23 | 3660 | 0.12 | – | – | CNC(=O)N(CCO)c1cc(-c2cnc(N)cc2C(F)(F)F)nc(N2CCOCC2)n1
– | 172 | – | 3610 nM | – | C[C@]1(CO)COC(=O)N1c1nc(-c2cnc(N)nc2C(F)(F)F)cc(N2CCOCC2)n1
– | 37 | – | 2580 nM | bioavailability [7]: 23%; hepatic extraction ratio at 1 h [8]: 0.78; AUC [9]: 0.708 µM·h; half-life [10]: 5.2 h; hepatic extraction ratio at 1 h [11]: 0.49; Vdss [12]: 3.9 L/kg | C[C@@H]1OC(=O)N(c2nc(-c3cnc(N)nc3C(F)(F)F)cc(N3CCOCC3)n2)[C@H]1CO
– | 152 | – | – | – | Nc1ncc(-c2cc(N3CCCOC3=O)nc(N3CCOCC3)n2)c(C(F)(F)F)n1
– | 111 | – | 2180 nM | – | Nc1ncc(-c2cc(N3CCOCC3)nc(N3C[C@H](CO)OC3=O)n2)c(C(F)(F)F)n1
– | 267 | – | 4970 nM | logD [13]: 2.1 | Nc1cc(C(F)(F)F)c(-c2cc(N3CCCC3=O)nc(N3CCOCC3)n2)cn1
1.1 | 1300 | 0.86 | – | – | CNC(=O)N(C)c1cc(-c2cnc(N)cc2C(F)(F)F)nc(N2CCOCC2)n1
– | 2830 | – | – | Activity (Tubulin (Homo sapiens) [4]): > 12%; Activity (Tubulin (Homo sapiens) [5]): 6%; IC50 [6]: > 9100 nM | Nc1cc(C(F)(F)F)c(-c2cc(N3CCOCC3)nc(N3CCOCC3)c2)cn1
0.31 | 8020 | 0.21 | – | – | Nc1cc(C(F)(F)F)c(-c2cc(N3CCOC[C@H]3CO)nc(N3CCOCC3)n2)cn1
– | 100 | – | 3940 nM | – | C[C@H]1OC(=O)N(c2nc(-c3cnc(N)nc3C(F)(F)F)cc(N3CCOCC3)n2)[C@H]1CC#N
– | 30 | – | 1720 nM | – | C[C@H]1[C@@H](CO)OC(=O)N1c1nc(-c2cnc(N)nc2C(F)(F)F)cc(N2CCOCC2)n1
– | 137 | – | > 9100 nM | – | Nc1ncc(-c2cc(N3CCOC3=O)nc(N3CCOCC3)n2)c(C(F)(F)F)n1
1.2 | 9020 | 0.93 | – | – | Nc1cc(C(F)(F)F)c(-c2cc(NC(CO)Cc3ccccc3)nc(N3CCOCC3)n2)cn1 (racemic)
0.2 | 2520 | 0.12 | – | – | N#Cc1cc(N)ncc1-c1cc(N2CCOC(CCO)C2)nc(N2CCOCC2)n1 (racemic)

Reference: ChEMBL document CHEMBL5137017, “Identification of NVP-CLR457 as an Orally Bioavailable Non-CNS-Penetrant pan-Class IA Phosphoinositol-3-Kinase Inhibitor” (J Med Chem, 2022)
